According to patent US11980598B2, “N-(2-(substituted-naphth-1-yl)ethyl) substituted amide compound, preparation and uses thereof” (BEIJING GREATWAY PHARMACEUTICAL TECHNOLOGY CO., LTD., priority 2017, dated 2024):
Read-outs that look alike come from different tables or passages of the source.

Experiments:
Kunming mice [1] = experiment: Acute toxicity test of mouse; assay type: in vivo
Description: Mice were administered by i.g. at doses of 5000 mg/kg and 2000 mg/kg. The drugs were dispersed with a 1% aqueous solution of hydroxypropyl methylcellulose (HPMC), and the administration volume was calculated in accordance with 0.2 mL/10 g.

SD rats [2] = experiment: Acute toxicity test of rat; assay type: in vivo; conditions: for Acute reaction after single administration / Adverse reactions during 14-day observation / Body weight compared with the blank group: rats, 2000 mg/kg i.g.
Description: Rats were administered by i.g. at a dose of 2000 mg/kg. The drugs were dispersed with a 1% aqueous solution of hydroxypropyl methylcellulose (HPMC).

Kunming mice [3] = experiment: Tail suspension test (TST) in mice; assay type: in vivo, mouse; conditions: 10 mg/kg intraperitoneal, 3 days, last 4 of 6 min
Description: (§1) Animals: Kunming mice, male, body weight 18-22 g, SPF grade; SD rats, male, body weight 150-180 g, SPF grade. The test was carried out after acclimatization, and the animal was fasted for 12 hours before the test.
(§2) All drugs for the test were suspended and dispersed in a 1% aqueous solution of hydroxypropyl methylcellulose (HPMC), and shaken well before use. […] The doses for administration were all 10 mg/kg. For the concentration and volume for administration, see J Psychiatry Neurosci 2004; 29(2):126-133. The mice were intraperitoneally administered in a volume of 0.5 mL/20 g; and the rats were administered by i.g. in a volume of 2 mL/100 g.
Mice were randomly divided into groups according to weight balance. Intraperitoneal injection was administered for three consecutive days, once a day, and the tail suspension test were performed 30 minutes after the third day. The tail suspension box was 25×25×35 cm, and a small clip was connected with a rope at the center of the top plate. An adhesive tape was stuck to the tail of the mouse 2 cm away from the tail end, and the adhesive tape was clamped with the clip to make the mouse in an inverted position. The duration of immobility was recorded during the last 4 minutes of total 6 minutes observed.

[4] = In vivo metabolism study, rat oral/tail vein injection model; conditions: for half-life: read-out: t½ (converted); for bioavailability: oral 5 mg/kg vs intravenous 0.5 mg/kg, dose conversion, read-out: F % (bioavailability)
Description: Male SD rats, weighing 200±20 g, SPF grade, were purchased from SPF Biotechnology Co., Ltd.
(§3) TSQ Quantum liquid chromatography-mass spectrometer (LC/MS/MS) from Finnigan Inc, USA, chromatography column: TSKgel Amide-80 column (2.0 mm I.D.×100 mm, 5 μm); mobile phase: acetonitrile-water-formic acid (50:50:0.1); flow rate: 0.2 mL/min; injection volume: 5 μL; column temperature: room temperature. Ionization source is electrospray ionization (ESI) with 4.8 KV of spray voltage; capillary temperature (TEM): 300° C.; sheath gas: N2, flow rate: 10 psi; auxiliary gas: N2, flow rate: 1 psi; collision gas (CID): Ar at a pressure of 1.5 mTorr. The mass spectrometry scanning method was selective reaction monitoring (SRM) and detected by positive ion method. The internal standard was a […] solution of aconitine in acetonitrile, the minimum limit of quantification was 5 ng/mL, and the correlation coefficient was >0.99.
Formulation of a solution for intravenous administration: approximately 5 mg of each test drug was accurately weighed, and dissolved in 50 μL of DMSO. To the solution was added an appropriate amount of 40% PEG400 aqueous solution to prepare a 0.5 mg/mL solution. The administration volume was 0.2 mL/200 g body weight, and the dose was 0.5 mg/kg body weight according to concentration conversion.
Formulation of a solution for i.g. administration: approximately 5 mg of each test drug was accurately weighed, and suspended and dispersed with a 1% aqueous solution of HPMC to prepare a 1 mg/mL suspension. The administration volume was 1 mL/200 g body weight, and the dose was 5 mg/kg body weight in terms of concentration according to concentration conversion.
Rats were randomly divided into 4 groups of 5 rats each. Oral gavage and tail vein administration were carried out according to the above dosages. At 2 min, 5 min, 15 min, 30 min, 1 h, 1.5 h, 2 h, and 3 h after administration, blood was collected from an orbit, and centrifuged at 8000 rpm for 10 min. 50 μL of plasma was weighed, and added with 50 μL of internal standard and 150 μL of acetonitrile. The mixture was mixed by shaking, and centrifuged at 18000 rpm for 10 min. The supernatant was taken for LC/MS/MS injection and determination. The determined data were analyzed using a DAS pharmacokinetic program to calculate the main pharmacokinetic parameters.

[5] = In vitro metabolism study, human liver microsomal incubation system; assay type: in vitro ADME
Description: as §3
Approximately 10 mg of each sample to be tested was accurately weighed, dissolved in 0.1 mL of DMSO, and serially diluted with purified water to a 10 μM, 1 μM standard stock solution. An ice bath was operated and the incubation system for detection was formulated according to Table 4. NADPH was added to the incubation system to start the reaction, and then 50 μL was immediately added to 150 μL acetonitrile as a zero-time sample and a 1 μM standard curve sample. Another 1 μM standard stock solution was added to the incubation system, and then 50 μL was immediately added to 150 μL acetonitrile as a 0.1 μM standard curve sample. […] Each sample was shaken, and centrifuged at 18000 g for 10 min. The supernatant was taken for LC/MS/MS injection and determination.

Kunming mice [6] = experiment: Forced mouse swimming test; assay type: in vivo; conditions: 10 mg/kg intraperitoneal, 3 days, last 4 of 6 min
Description: as §1, §2
Animal grouping and administration method were the same as those in the tail suspension test in mice. The mice were placed in a round glass vessel with a height of 20 cm, an inner diameter of 12 cm, a water depth of 10 cm and a water temperature of 25° C.

SD rats [7] = experiment: Forced rat swimming test; assay type: in vivo; conditions: 10 mg/kg i.g., 3 days, last 5 of 6 min
Description: as §1, §2
Rats were randomly divided into groups according to weight balance. Rats were administered by i.g. for three consecutive days, once a day. One hour after administration on the third day, the forced swimming test was performed. The rats were placed in a round glass jar with a height of 40 cm, an inner diameter of 18 cm, a water depth of 23 cm, and a water temperature of 25° C. The rats were allowed to swim for 6 minutes, and the accumulated immobility time in the last 5 minutes was recorded.

[8] = incubation time 0 min, 1 μM, 1 mg/mL microsome, 37° C.

SMILES	Acute reaction after single administration (Kunming mice [1]; mice, 2000 mg/kg i.g.)	Adverse reactions during 14-day observation (Kunming mice [1]; mice, 2000 mg/kg i.g.)	Body weight compared with the blank group (Kunming mice [1]; mice, 2000 mg/kg i.g.)	Acute reaction after single administration (Kunming mice [1]; mice, 5000 mg/kg i.g.)	Acute reaction after single administration (SD rats [2])	Adverse reactions during 14-day observation (SD rats [2])	Body weight compared with the blank group (SD rats [2])	Immobility time (Kunming mice [3])	AUC(0-t) ([4]; oral 5 mg/kg)	Concentration measured at incubation time point [5, 8]	Concentration measured at incubation time point ([5]; incubation time 5 min)	Concentration measured at incubation time point ([5]; incubation time 15 min)	Immobility time (Kunming mice [6])	Immobility time (SD rats [7])	further results
COc1ccc2cccc(CCNC(C)=O)c2c1 [Agomelatine, reference compound]	the mice all fell into a coma 15 minutes after the administration	no obvious adverse reactions within 14 days after the administration	the body weight was lighter on the first and second days after the administration with a significant difference	the mice all fell into a coma 15 minutes after the administration and died successively after 12 hours	8 rats were slow to move or became lethargic, and all returned to normal within 2 hours	no obvious adverse reactions within 14 days after the administration	no significant difference in body weight compared with the blank group	75.1 ± 21.4 s	51.57 ng·h/mL	999 ± 59 nM	539 ± 19 nM	9 ± 5 nM	113.5 ± 26.6 s	73.5 ± 38.5 s	Number of mice that died within 12 hours (Kunming mice [1]; mice, 2000 mg/kg i.g., group of 10): 4 mice; half-life ([4]; male, Sprague-Dawley (SD), plasma, intravenous injection 0.5 mg/kg): 20.4 min; AUC(0-t) ([4]; male, Sprague-Dawley (SD), plasma, iv, 0.5 mg/kg, intravenous injection 0.5 mg/kg, read-out: AUC(0-t)): 102 ng·h/mL; bioavailability ([4]; male, Sprague-Dawley (SD), plasma): 5.05%; half-life ([4]; male, Sprague-Dawley (SD), plasma, oral 5 mg/kg): 40.2 min; AUC(0-t) ([4]; male, Sprague-Dawley (SD), plasma, po, 5 mg/kg, oral 5 mg/kg, read-out: AUC(0-t)): 51.6 ng·h/mL
[2H]C([2H])([2H])Oc1cc2c(CCNC(C)=O)cccc2cc1Cl [Example 1, N-(2-(6-chloro-7-deuteromethoxy-naphthalen-1-yl)ethyl)acetamide]	the activity of the mice became slightly smaller but there were no obvious adverse reactions	no obvious adverse reactions within 14 days after the administration	no significant difference in body weight compared with the blank group	the mice began to fall into a coma 15 minutes after the administration, and within 24 hours the mice all awakened and returned to normal	the activity of the rats became slightly smaller but there were no obvious adverse reactions	no obvious adverse reactions within 14 days after the administration	no significant difference in body weight compared with the blank group	55.7 ± 19.7 s	248.83 ng·h/mL	1001 ± 19 nM	793 ± 108 nM	194 ± 46 nM	73.0 ± 18.2 s	51.0 ± 32.4 s	Adverse reactions during 14-day observation (Kunming mice [1]; mice, 5000 mg/kg i.g.): no obvious adverse reactions within 14 days after the administration; Body weight compared with the blank group (Kunming mice [1]; mice, 5000 mg/kg i.g.): no significant difference in body weight compared with the blank group; Safety compared with control drug (Kunming mice [1]; mouse model, overall): safer than the control drug Agomelatine; Safety compared with control drug (SD rats [2]; rat model, overall): safer than the control drug Agomelatine; half-life ([4]; male, SD, plasma, intravenous injection 0.5 mg/kg): 28.8 min; AUC(0-t) ([4]; male, SD, plasma, iv, 0.5 mg/kg, intravenous injection 0.5 mg/kg, read-out: AUC(0-t)): 48.9 ng·h/mL; bioavailability ([4]; male, SD, plasma): 50.9%; half-life ([4]; male, SD, plasma, oral 5 mg/kg): 29.4 min; AUC(0-t) ([4]; male, SD, plasma, po, 5 mg/kg, oral 5 mg/kg, read-out: AUC(0-t)): 249 ng·h/mL; Metabolic stability in human liver microsome (comparison) ([5]; compared among examples and controls): highest metabolic stability; Concentration measured at incubation time point ([5]; incubation time 30 min): 110 ± 88 nM
